Assay results from patent US9662357B2, “Bacterium and extracts of said bacterium and the use of same in dermatology” (PIERRE FABRE DERMO-COSMETIQUE, priority 2010, dated 2017).

Legend:
Type in all cases: cell-based
[1] = system: Bacterium LMB64; assay: Antibiotic sensitivity of bacterium LMB64, zone of inhibition; settings: disc load given with each antibiotic; for Zone of inhibition diameter (mm) LB ½: LB ½ dilution medium; for Zone of inhibition diameter (mm) LB ⅕: LB ⅕ dilution medium; for Zone of inhibition diameter (mm) R3: R3 medium
[2] = system: TSLP; assay: PCR array, NHEK atopic dermatitis phenotype: TSLP; settings: Homo sapiens, read-out: percentage of inhibition TSLP
Experimental: (§1) The study was carried out on normal human epidermal keratinocytes (NHEK, K-SFM culture medium) in the context of the induction of an atopic dermatitis phenotype.

[3] = system: IL-1α; assay: PCR array, NHEK atopic dermatitis phenotype: IL-1α; settings: Homo sapiens, read-out: percentage of inhibition IL-1α
Experimental: as §1

[4] = system: IL-18; assay: PCR array, NHEK atopic dermatitis phenotype: IL-18; settings: Homo sapiens, read-out: percentage of inhibition IL-18
Experimental: as §1

[5] = system: IFN-β1; assay: PCR array, NHEK atopic dermatitis phenotype: IFN-β1; settings: Homo sapiens, read-out: percentage of inhibition IFN-β1
Experimental: as §1

[6] = system: IL-8; assay: PCR array, NHEK atopic dermatitis phenotype: IL-8; settings: Homo sapiens, read-out: percentage of inhibition IL-8
Experimental: as §1

[7] = system: MlP-1α; assay: PCR array, NHEK atopic dermatitis phenotype: MlP-1α; settings: Homo sapiens, read-out: percentage of inhibition MlP-1α
Experimental: as §1

[8] = system: RANTES; assay: PCR array, NHEK atopic dermatitis phenotype: RANTES; settings: Homo sapiens, read-out: percentage of inhibition RANTES
Experimental: as §1

[9] = system: MIP-3α; assay: PCR array, NHEK atopic dermatitis phenotype: MIP-3α; settings: Homo sapiens, read-out: percentage of inhibition MIP-3α
Experimental: as §1

[10] = system: MDC; assay: PCR array, NHEK atopic dermatitis phenotype: MDC; settings: Homo sapiens, read-out: percentage of inhibition MDC
Experimental: as §1

[11] = system: Skinkine; assay: PCR array, NHEK atopic dermatitis phenotype: Skinkine; settings: Homo sapiens, read-out: percentage of inhibition Skinkine
Experimental: as §1

[12] = system: IL-4-R; assay: PCR array, NHEK atopic dermatitis phenotype: IL-4-R; settings: Homo sapiens, read-out: percentage of inhibition IL-4-R
Experimental: as §1

[13] = system: RARRES3; assay: PCR array, NHEK atopic dermatitis phenotype: RARRES3; settings: Homo sapiens, read-out: percentage of inhibition RARRES3
Experimental: as §1

## CC1(C)S[C@@H]2[C@H](NC(=O)[C@H](N)c3ccccc3)C(=O)N2[C@H]1C(=O)O [Ampicillin]
[1]
  Zone of inhibition diameter (mm) LB ½: 28 mm
  Zone of inhibition diameter (mm) LB ⅕: 29 mm
  Zone of inhibition diameter (mm) R3: 29 mm

## O=C(N[C@H](CO)[C@H](O)c1ccc([N+](=O)[O-])cc1)C(Cl)Cl [Chloramphenicol]
[1]
  Zone of inhibition diameter (mm) LB ½: 26 mm
  Zone of inhibition diameter (mm) LB ⅕: 24 mm
  Zone of inhibition diameter (mm) R3: 29 mm

## O=C(O)c1cn(C2CC2)c2cc(N3CCNCC3)c(F)cc2c1=O [Ciprofloxacin]
[1]
  Zone of inhibition diameter (mm) LB ⅕: 34 mm
  Zone of inhibition diameter (mm) R3: 38 mm

## C[C@@H]1C[C@H]2[C@@H]3CCC4=CC(=O)C=C[C@]4(C)[C@@]3(F)[C@@H](O)C[C@]2(C)[C@@]1(O)C(=O)CO [Dexamethasone]
[2]
  inhibition at 2 µM: 91%
[3]
  inhibition at 2 µM: 54%
[4]
  inhibition at 2 µM: 44%
[5]
  inhibition at 2 µM: 49%
[6]
  inhibition at 2 µM: 75%
[7]
  inhibition at 2 µM: 76%
[8]
  inhibition at 2 µM: 12%
[9]
  inhibition at 2 µM: 40%
[10]
  inhibition at 2 µM: 45%
[11]
  inhibition at 2 µM: 59%
[12]
  inhibition at 2 µM: 75%
[13]
  inhibition at 2 µM: 28%

## NC[C@H]1O[C@H](O[C@H]2[C@H](O)[C@@H](O[C@H]3O[C@H](CO)[C@@H](O)[C@H](N)[C@H]3O)[C@H](N)C[C@@H]2N)[C@H](O)[C@@H](O)[C@@H]1O [Kanamycin]
[1]
  Zone of inhibition diameter (mm) LB ½: 30 mm
  Zone of inhibition diameter (mm) LB ⅕: 27 mm
  Zone of inhibition diameter (mm) R3: 27 mm

## CO[C@H]1/C=C/O[C@@]2(C)Oc3c(C)c(O)c4c(O)c(c(/C=N/N5CCN(C)CC5)c(O)c4c3C2=O)NC(=O)/C(C)=C\C=C\[C@H](C)[C@H](O)[C@@H](C)[C@@H](O)[C@@H](C)[C@H](OC(C)=O)[C@@H]1C [Rifampicin]
[1]
  Zone of inhibition diameter (mm) LB ½: 19 mm
  Zone of inhibition diameter (mm) LB ⅕: 15 mm
  Zone of inhibition diameter (mm) R3: 20 mm

## [H]/N=C(/N)N[C@H]1[C@H](O)[C@@H](O)[C@H](O[C@@H]2O[C@@H](C)[C@](O)(C=O)[C@H]2O[C@@H]2O[C@@H](CO)[C@H](O)[C@@H](O)[C@@H]2NC)[C@@H](N/C(N)=N\[H])[C@@H]1O [Streptomycin]
[1]
  Zone of inhibition diameter (mm) LB ½: 25 mm
  Zone of inhibition diameter (mm) LB ⅕: 24 mm
  Zone of inhibition diameter (mm) R3: 25 mm

## CN(C)[C@@H]1C(O)=C(C(N)=O)C(=O)[C@@]2(O)C(O)=C3C(=O)c4c(O)cccc4[C@@](C)(O)[C@H]3C[C@@H]12 [Tetracycline]
[1]
  Zone of inhibition diameter (mm) LB ½: 25 mm
  Zone of inhibition diameter (mm) LB ⅕: 20 mm
  Zone of inhibition diameter (mm) R3: 30 mm

## CN[C@H](CC(C)C)C(=O)N[C@H]1C(=O)N[C@@H](CC(N)=O)C(=O)N[C@H]2C(=O)N[C@H]3C(=O)N[C@H](C(=O)N[C@H](C(=O)O)c4cc(O)cc(O)c4-c4cc3ccc4O)[C@H](O)c3ccc(c(Cl)c3)Oc3cc2cc(c3O[C@@H]2O[C@H](CO)[C@@H](O)[C@H](O)[C@H]2O[C@H]2C[C@](C)(N)[C@H](O)[C@H](C)O2)Oc2ccc(cc2Cl)[C@H]1O [Vancomycin]
[1]
  Zone of inhibition diameter (mm) LB ½: 21 mm
  Zone of inhibition diameter (mm) LB ⅕: 21 mm
  Zone of inhibition diameter (mm) R3: 20 mm

## Penicillin
[1]
  Zone of inhibition diameter (mm) LB ½: 26 mm
  Zone of inhibition diameter (mm) LB ⅕: 20 mm
  Zone of inhibition diameter (mm) R3: 21 mm

## Polymyxin B
[1]
  Zone of inhibition diameter (mm) LB ½: 15 mm
  Zone of inhibition diameter (mm) LB ⅕: 13 mm
  Zone of inhibition diameter (mm) R3: 11 mm
